Test results as given in ChEMBL document CHEMBL3880436, “Pharmaceutical composition containing optically active compound having thrombopoietin receptor agonist activity, and intermediate therefor” (2013).
Active and inactive are the calls of the source. No cut-off for these calls is given here.

What was measured:
Mus musculus = assay: Increase in platelet levels in mouse expressing human transmembrane site of TPO receptor administered as po bid for 2 weeks measured after 3 days to 3 weeks post initiation of initial dose relative to vehicle-treated control; assay type: functional, organism-based
[1] = molecular target: T1, Thrombopoietin receptor (Homo sapiens) (UniProt P40238); assay: Agonist activity at human TPO receptor expressed in mouse BaF-B03 cells assessed as induction of cell proliferation after 20 hrs by WST-1 assay; assay type: cell-based
T1 sequence (whole entry): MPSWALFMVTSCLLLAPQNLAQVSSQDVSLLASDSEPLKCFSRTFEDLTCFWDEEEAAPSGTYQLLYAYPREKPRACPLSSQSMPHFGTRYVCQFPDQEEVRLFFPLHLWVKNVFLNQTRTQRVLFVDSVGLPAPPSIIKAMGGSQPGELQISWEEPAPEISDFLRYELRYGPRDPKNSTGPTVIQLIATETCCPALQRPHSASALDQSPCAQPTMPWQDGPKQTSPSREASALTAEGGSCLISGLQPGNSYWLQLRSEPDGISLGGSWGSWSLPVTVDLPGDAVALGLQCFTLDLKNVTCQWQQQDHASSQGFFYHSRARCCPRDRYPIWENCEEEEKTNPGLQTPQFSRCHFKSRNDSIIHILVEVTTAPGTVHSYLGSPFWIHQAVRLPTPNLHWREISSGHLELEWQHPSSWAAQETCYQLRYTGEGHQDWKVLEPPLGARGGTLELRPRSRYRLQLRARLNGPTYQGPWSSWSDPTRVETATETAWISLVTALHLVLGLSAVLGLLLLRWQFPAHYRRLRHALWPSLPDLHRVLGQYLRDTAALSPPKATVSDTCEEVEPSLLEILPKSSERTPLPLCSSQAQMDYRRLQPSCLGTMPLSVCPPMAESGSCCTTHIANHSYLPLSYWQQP

SMILES | Activity (Mus musculus) | ED50 [1] [nM]
CCCCCCO[C@@H](C)c1cccc(-c2csc(NC(=O)c3cc(Cl)c(/C=C(\C)C(=O)O)c(Cl)c3)n2)c1OC | Active | 1.09
CCCO[C@H](c1cccc(-c2csc(NC(=O)c3cc(Cl)c(/C=C(\C)C(=O)O)c(Cl)c3)n2)c1OC)C(C)(C)C | Active | –
CCCCCC[C@@H](OC)c1cccc(-c2csc(NC(=O)c3cc(Cl)c(/C=C(\C)C(=O)O)c(Cl)c3)n2)c1OC | Active | 3.09
CCCCCC[C@H](OC)c1cccc(-c2csc(NC(=O)c3cc(Cl)c(/C=C(\C)C(=O)O)c(Cl)c3)n2)c1OC | Active | 2.08
CCCCCCO[C@H](C)c1cccc(-c2csc(NC(=O)c3cc(Cl)c(/C=C(\C)C(=O)O)c(Cl)c3)n2)c1OC | Active | 1.4
